Results taken from publication PMC9864808, “Exploring Mannosylpurines as Copper Chelators and Cholinesterase Inhibitors with Potential for Alzheimer’s Disease” (Pharmaceuticals, 2022).
Where “and” joins values, the source holds several entries; their conditions need not be identical. Identical values can stand only once.

Tests used:
[1] = target: hAChE (recombinant human isoform) (Homo sapiens, UniProt P22303); assay: biochemical; format: biochemical; details: for IC50: recombinant human isoform, means ± SD of three measurements; for inhibition at 20 µM: read-out: inhibition percentage hAChE
Sequence of hAChE (recombinant human isoform) (P22303 32-614): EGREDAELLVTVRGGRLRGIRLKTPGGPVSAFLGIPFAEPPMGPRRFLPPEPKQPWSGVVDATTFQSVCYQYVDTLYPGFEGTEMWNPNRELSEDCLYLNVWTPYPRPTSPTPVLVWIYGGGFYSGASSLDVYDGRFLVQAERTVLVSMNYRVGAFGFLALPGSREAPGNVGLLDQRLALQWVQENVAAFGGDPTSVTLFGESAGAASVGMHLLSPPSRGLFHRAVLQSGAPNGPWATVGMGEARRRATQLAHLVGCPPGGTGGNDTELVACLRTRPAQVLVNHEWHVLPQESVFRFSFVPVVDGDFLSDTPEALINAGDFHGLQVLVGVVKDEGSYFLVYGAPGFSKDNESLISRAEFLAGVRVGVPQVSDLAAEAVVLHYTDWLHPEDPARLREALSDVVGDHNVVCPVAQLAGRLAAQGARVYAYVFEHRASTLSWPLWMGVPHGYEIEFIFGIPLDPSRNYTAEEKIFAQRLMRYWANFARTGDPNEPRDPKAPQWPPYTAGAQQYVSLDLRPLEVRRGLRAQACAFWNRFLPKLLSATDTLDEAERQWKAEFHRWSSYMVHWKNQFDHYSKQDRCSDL
Experimental: (§1) The in vitro inhibitory activities of novel purine nucleosides 5-10, 12, 13 and 15, and 16 were evaluated against both heterologous (electric eel eeAChE, horse eqBChE) and human (recombinant) cholinesterases isoforms, by applying the Ellmann colorimetric assay, with slight modifications.
(§2) The test compounds were assayed for their inhibitory activity toward eeAChE (electric eel AChE) and eqBChE (horse serum BChE), respectively, following Ellman’s method with modifications. […] AChE inhibitory activity was determined similarly by using a solution of AChE (0.9 U/mL in 0.1 M pH 8.0 phosphate buffer, PB) and acetylthiocholine iodide (ATC, 0.05 mM in 0.1 M pH 8.0 phosphate buffer, PB) as substrate. The inhibition data are reported as means of IC50’s determined at least in three independent measurements.

[2] = target: hBChE (recombinant human isoform) (Homo sapiens, UniProt P06276); assay: biochemical; format: biochemical; details: for IC50: recombinant human isoform, means ± SD of three measurements
Sequence of hBChE (recombinant human isoform) (P06276 29-602): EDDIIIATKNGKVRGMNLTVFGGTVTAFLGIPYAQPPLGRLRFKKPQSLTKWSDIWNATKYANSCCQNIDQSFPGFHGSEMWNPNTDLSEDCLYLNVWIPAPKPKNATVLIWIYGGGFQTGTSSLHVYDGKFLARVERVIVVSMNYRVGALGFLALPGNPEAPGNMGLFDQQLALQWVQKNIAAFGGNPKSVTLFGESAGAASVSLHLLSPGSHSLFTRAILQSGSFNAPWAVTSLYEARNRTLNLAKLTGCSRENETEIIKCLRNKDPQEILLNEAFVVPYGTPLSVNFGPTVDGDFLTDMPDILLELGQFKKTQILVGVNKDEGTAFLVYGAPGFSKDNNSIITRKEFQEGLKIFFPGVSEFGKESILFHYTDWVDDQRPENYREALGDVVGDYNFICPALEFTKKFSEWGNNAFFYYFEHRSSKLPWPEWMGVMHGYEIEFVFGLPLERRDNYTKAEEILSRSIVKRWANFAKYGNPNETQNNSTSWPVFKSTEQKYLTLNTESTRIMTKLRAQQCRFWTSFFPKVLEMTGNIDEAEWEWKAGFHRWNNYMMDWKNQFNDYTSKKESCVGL
Experimental: as §1, §2

[3] = target: eeAChE (electric eel acetylcholinesterase) (Electrophorus electricus, UniProt O42275); assay: biochemical; details: for IC50: Ellman assay, means ± SD of three measurements; for inhibition at 20 µM: read-out: inhibition percentage eeAChE, at 20 μM
Sequence of eeAChE (electric eel acetylcholinesterase) (O42275 24-633): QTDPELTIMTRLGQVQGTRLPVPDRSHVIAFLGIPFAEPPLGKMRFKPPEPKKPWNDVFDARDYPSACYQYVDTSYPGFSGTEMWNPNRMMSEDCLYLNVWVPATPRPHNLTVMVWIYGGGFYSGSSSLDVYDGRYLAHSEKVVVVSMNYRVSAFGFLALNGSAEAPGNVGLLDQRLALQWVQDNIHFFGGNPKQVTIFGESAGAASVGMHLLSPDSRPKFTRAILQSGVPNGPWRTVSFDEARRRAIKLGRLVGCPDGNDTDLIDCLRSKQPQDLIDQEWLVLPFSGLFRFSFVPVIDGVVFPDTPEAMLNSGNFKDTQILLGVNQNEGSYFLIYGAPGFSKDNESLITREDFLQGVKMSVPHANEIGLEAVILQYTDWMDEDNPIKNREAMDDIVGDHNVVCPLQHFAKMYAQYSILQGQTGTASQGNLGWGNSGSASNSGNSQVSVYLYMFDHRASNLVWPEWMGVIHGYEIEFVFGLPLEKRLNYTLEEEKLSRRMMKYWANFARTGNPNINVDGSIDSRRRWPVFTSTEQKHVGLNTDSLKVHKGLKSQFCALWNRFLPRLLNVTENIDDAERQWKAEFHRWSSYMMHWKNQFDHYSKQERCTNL
Experimental: as §2, with “The in vitro inhibitory activities of novel purine nucleosides 5-10, 12, 13 and 15, and 16 were evaluated against both heterologous (electric eel eeAChE, horse eqBChE) and human (recombinant) cholinesterases isoforms, by applying the Ellmann colorimetric assay, with slight modifications. […] The test” for “The test”

[4] = target: T1, eqBChE (horse serum butyrylcholinesterase) (Equus caballus, UniProt P81908); assay: biochemical; details: for IC50: horse serum BChE, means ± SD of three measurements; for inhibition at 20 µM: read-out: inhibition percentage eqBChE
T1 construct: eqBChE (horse serum BChE); from tissue; host or cells: horse serum
T1 sequence (P81908 whole entry): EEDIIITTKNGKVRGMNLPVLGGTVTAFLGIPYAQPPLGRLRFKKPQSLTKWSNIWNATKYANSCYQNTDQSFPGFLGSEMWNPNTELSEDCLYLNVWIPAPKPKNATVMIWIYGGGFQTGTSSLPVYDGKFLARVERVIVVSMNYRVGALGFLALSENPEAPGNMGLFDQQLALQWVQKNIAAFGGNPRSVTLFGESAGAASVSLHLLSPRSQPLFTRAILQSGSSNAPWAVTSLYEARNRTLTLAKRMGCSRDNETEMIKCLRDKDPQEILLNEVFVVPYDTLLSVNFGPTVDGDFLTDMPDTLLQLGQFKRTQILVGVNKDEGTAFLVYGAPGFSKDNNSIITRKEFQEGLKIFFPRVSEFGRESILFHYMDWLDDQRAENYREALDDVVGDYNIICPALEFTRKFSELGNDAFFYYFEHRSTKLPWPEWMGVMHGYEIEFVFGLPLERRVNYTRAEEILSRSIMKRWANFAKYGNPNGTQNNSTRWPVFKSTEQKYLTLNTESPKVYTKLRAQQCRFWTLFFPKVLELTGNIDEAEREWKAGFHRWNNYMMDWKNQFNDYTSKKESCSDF
Experimental: as §2, with “The in vitro inhibitory activities of novel purine nucleosides 5-10, 12, 13 and 15, and 16 were evaluated against both heterologous (electric eel eeAChE, horse eqBChE) and human (recombinant) cholinesterases isoforms, by applying the Ellmann colorimetric assay, with slight modifications. […] The test” for “The test”

[5] = UV-Visible chelating study, copper; details: ions Cu^2+, Zn^2+, Fe^2+, Al^3+ as chlorides, water/DMSO
Experimental: (§3) The chelating activity of all purine nucleoside probes was evaluated by the UV-Visible method in order to determine compounds’ absorption spectra in the absence and in the presence of Cu^2+ at concentrations ranging from 1 μM to 10 μM. […] The resulting wavelength shift from λ = 280 to λ = 325 nm indicates a conformational rearrangement induced by interaction with Cu^2+.
(§4) UV-Visible spectroscopy offers the advantage of high sensitivity towards small changes that affect the electronic properties of ligand receptors, so absorption spectra of all reported compounds have been evaluated by recording UV-visible properties in subsequent conditions: 1.5 mL 1 × 10^−4M of the probe are added to 1.5 mL 2 × 10^−5M of each ion chloride salt’s solution (Copper Chloride (CuCl2), Zinc Chloride (ZnCl2), Iron (II) Chloride (FeCl2) and Aluminum Chloride (AlCl3)). A mixture of distilled water/DMSO 95:5 has been selected as a solvent for compounds 5–10 and 12. For compounds 14–16, the selected solvent was a mixture of distilled water/DMSO 90:10 due to poor water solubility. Furthermore, a titration assay of each compound has been carried out by adding increasing concentration of selected ion (final ion concentration = 1 µM, 2 µM, 3 µM, 5 µM, and 10 µM).

[6] = UV-Visible chelating study, iron; details: UV-Visible absorption
Experimental: as §3, §4

[7] = UV-Visible chelating study, aluminum; details: UV-Visible absorption
Experimental: as §3, §4

[8] = UV-Visible chelating study, zinc; details: UV-Visible absorption
Experimental: as §3, §4

[9] = Water solubility (qualitative remark); format: physicochemical
brain AChE = details: literature value determined for brain AChE; read-out: IC50 hAChE; cited from earlier work
serum BChE = details: literature value determined for serum BChE; read-out: IC50 hBChE; cited from earlier work
[10] = at 5 μM (lower water solubility), 5 µM

O=C(Nc1ncnc2ncn([C@@H]3O[C@H](COCc4ccccc4)[C@@H](OCc4ccccc4)[C@H](OCc4ccccc4)[C@@H]3OCc3ccccc3)c12)c1ccccc1 [Compound 8, 6-benzamido-7-(2,3,4,6-tetra-O-benzyl-β-D-mannopyranosyl)purine]
IC50 [1]: 4.8 µM and 4.81 µM | IC50 [2]: 4.6 µM and 4.55 µM | IC50 [3]: 2.6 µM and 2.61 µM | IC50 [4]: 4.4 ± 1.3 µM

C[C@H]1O[C@H](n2cnc3c(NC(=O)c4ccccc4)ncnc32)[C@@H](OCc2ccccc2)[C@@H](OCc2ccccc2)[C@@H]1OCc1ccccc1 [Compound 9, 6-benzamido-9-(6-deoxy-2,3,4-tri-O-benzyl-α-D-mannopyranosyl)purine]
inhibition at 20 µM [1]: 25% | IC50 [1]: > 20 µM | hBChE inhibition, result in words [2]: selective inhibitor | IC50 [2]: 15.4 ± 1.1 µM | eeAChE inhibition, result in words [3]: selective inhibitor | IC50 [3]: 4.7 µM and 4.69 µM | inhibition at 20 µM [4]: 28% | IC50 [4]: > 20 µM

C[C@@H]1O[C@@H](n2cnc3c(NC(=O)c4ccccc4)ncnc32)[C@H](OCc2ccccc2)[C@H](OCc2ccccc2)[C@H]1OCc1ccccc1 [Compound 15, 6-benzamido-9-(6-deoxy-2,3,4-tri-O-benzyl-α-L-mannopyranosyl)purine]
inhibition percentage hAChE [1, 10]: 28 ± 3% | IC50 [1]: > 5 µM | IC50 [2]: > 5 µM | chelating activity / metal selectivity, result in words [5]: selective copper chelator | interaction with iron ion, result in words [6]: no relevant interaction | IC50 [3]: > 5 µM | inhibition at 5 µM ([3]; read-out: inhibition percentage eeAChE, at 5 μM (lower water solubility)): ≤ 50% | IC50 [4]: > 5 µM | interaction with aluminum ion, result in words [7]: no relevant interaction | interaction with zinc ion, result in words [8]: no relevant interaction | water solubility, in words [9]: dramatic reduction of aqueous solubility

O=C(Nc1ncnc2c1ncn2[C@@H]1O[C@H](COCc2ccccc2)[C@@H](OCc2ccccc2)[C@H](OCc2ccccc2)[C@@H]1OCc1ccccc1)c1ccccc1 [Compound 6, 6-benzamido-9-(2,3,4,6-tetra-O-benzyl-β-D-mannopyranosyl)purine]
IC50 [1]: 17 ± 0.75 µM | IC50 [2]: 4.6 µM and 4.58 µM | IC50 [3]: 10.6 ± 1.1 µM | IC50 [4]: 4.3 µM and 4.29 µM

CC(=O)O[C@@H]1[C@@H](OC(C)=O)[C@H](C)O[C@@H](n2cnc3c(NC(=O)c4ccccc4)ncnc32)[C@@H]1OC(C)=O [Compound 12, 6-benzamido-9-(6-deoxy-2,3,4-tri-O-acetyl-α-L-mannopyranosyl)purine]
hAChE inhibition, result in words [1]: not active | hBChE inhibition, result in words [2]: not active | chelating activity / metal selectivity, result in words [5]: selective Cu^2+ chelating agents | eeAChE inhibition, result in words [3]: not active | IC50 [3]: > 20 µM | inhibition at 20 µM [3]: 8% | eqBChE inhibition, result in words [4]: not active | inhibition at 20 µM [4]: 5% | IC50 [4]: > 20 µM

C[C@H]1O[C@@H](n2cnc3c(NC(=O)c4ccccc4)ncnc32)[C@@H](OCc2ccccc2)[C@@H](OCc2ccccc2)[C@@H]1OCc1ccccc1 [Compound 10, 6-benzamido-9-(6-deoxy-2,3,4-tri-O-benzyl-β-D-mannopyranosyl)purine]
IC50 [1]: 17.8 ± 2.2 µM | IC50 [2]: 8.7 ± 1.35 µM | IC50 [3]: 15 ± 2.1 µM | eqBChE inhibition, result in words [4]: moderate inhibition | IC50 [4]: 11.7 ± 1.2 µM

Clc1ncnc2c1ncn2[C@H]1O[C@H](COCc2ccccc2)[C@@H](OCc2ccccc2)[C@H](OCc2ccccc2)[C@@H]1OCc1ccccc1 [Compound 1, 6-chloro-9-(2,3,4,6-tetra-O-benzyl-α-D-mannopyranosyl)purine, reference compound]
IC50 [3]: 2.4 ± 0.3 µM | IC50 [4]: 2.8 ± 0.3 µM

C[C@@H]1O[C@@H](n2cnc3c(N(Cc4ccccc4)C(=O)c4ccccc4)ncnc32)[C@H](OCc2ccccc2)[C@H](OCc2ccccc2)[C@H]1OCc1ccccc1 [Compound 13, 6-benzamido-N-benzyl-9-(6-deoxy-2,3,4-tri-O-benzyl-α-L-mannopyranosyl)purine]
hAChE inhibition, result in words [1]: no activity | inhibition at 20 µM [1]: 8% | IC50 [1]: > 20 µM | hBChE inhibition, result in words [2]: no activity | inhibition at 20 µM ([2]; at 20 μM, read-out: inhibition percentage hBChE): 25% | IC50 [2]: > 20 µM | chelating activity / metal selectivity, result in words [5]: did not show chelating activity | interaction with iron ion, result in words [6]: did not show chelating activity | IC50 [3]: > 20 µM | inhibition at 20 µM [3]: 6% | eqBChE inhibition, result in words [4]: selective | IC50 [4]: 5.1 µM and 5.12 µM | interaction with aluminum ion, result in words [7]: did not show chelating activity | interaction with zinc ion, result in words [8]: did not show chelating activity

O=C(Nc1ncnc2ncn([C@H]3O[C@H](COCc4ccccc4)[C@@H](OCc4ccccc4)[C@H](OCc4ccccc4)[C@@H]3OCc3ccccc3)c12)c1ccccc1 [Compound 7, 6-benzamido-7-(2,3,4,6-tetra-O-benzyl-α-D-mannopyranosyl)purine]
IC50 [3]: > 20 µM | eqBChE inhibition, result in words [4]: selective | IC50 [4]: 10 ± 1.1 µM

C[C@@H]1O[C@H](n2cnc3c(NC(=O)c4ccccc4)ncnc32)[C@H](OCc2ccccc2)[C@H](OCc2ccccc2)[C@H]1OCc1ccccc1 [Compound 16, 6-benzamido-9-(6-deoxy-2,3,4-tri-O-benzyl-β-L-mannopyranosyl)purine]
IC50 [1]: > 5 µM | inhibition percentage hBChE [2, 10]: 30 ± 7% | inhibition at 5 µM ([2]; at 5 μM (lower water solubility), read-out: inhibition percentage hBChE): < 50% | IC50 [2]: > 5 µM | chelating activity / metal selectivity, result in words [5]: non-selective chelator | IC50 [3]: > 5 µM | IC50 [4]: > 5 µM | water solubility, in words [9]: dramatic reduction of aqueous solubility

CC(=O)Nc1nc(Cl)c2c(ncn2[C@H]2O[C@H](COCc3ccccc3)[C@@H](OCc3ccccc3)[C@H](OCc3ccccc3)[C@@H]2OCc2ccccc2)n1 [Compound 2, reference compound]
IC50 [3]: 18.1 ± 4.8 µM | IC50 [4]: 0.05 ± 0.01 µM

O=C(Nc1ncnc2c1ncn2[C@H]1O[C@H](COCc2ccccc2)[C@@H](OCc2ccccc2)[C@H](OCc2ccccc2)[C@@H]1OCc1ccccc1)c1ccccc1 [Compound 5, 6-benzamido-9-(2,3,4,6-tetra-O-benzyl-α-D-mannopyranosyl)purine]
IC50 [3]: > 20 µM | inhibition at 20 µM [3]: 25% | inhibition at 20 µM [4]: 11% | IC50 [4]: > 20 µM

COc1ccc2c3c1O[C@H]1C[C@@H](O)C=C[C@@]31CCN(C)C2 [Galantamine]
IC50 (brain AChE): 5 ± 0.071 µM | IC50 (serum BChE): 59.2 ± 1.7 µM
